The text below walks through data of patent publication US20230414632A1, “INHIBITION OF THE HIV-1 REPLICATION BY COMPOUNDS DIRECTED AGAINST A NEW TARGET OF THE VIRAL CYCLE” (priority 2020, published 2023).

The test system of one data set is MT4 cells. The data set can be described thus: Cell survival / cellular toxicity in infected MT4 cells (flow cytometry). Type of data set: cell-based. The settings on record: up to 10 μM compound, day 5, MT4 cells. As to the method: For HIV-1 gfp+ vectors, viral replication is followed by GFP expression [i.e. the percentage and geometric mean fluorescence intensity (MFI) of GFP^+ cells]. Infectivity was estimated by flow cytometry using a FACSCalibur™ cytofluorometer (BD Biosciences). Toxicity is also assessed by flow cytometry (side and forward scatter).
At J0 (day zero) MT4 cells was used for infection with HIV gfp+ virus at multiplicity of infection (m.o.i.) reaching 0.1-0.2 (50 ng of p24^gag antigen per 10^6 cells). Two days post-infection (J2), MT4 cells are washed extensively (3 times with PBS) and resuspended using fresh RPMI medium (2×10^5 cells per ml) and plated into 6 well plates (2 ml per well) in the presence of compounds of formula I or II at various molecules concentrations. A control not infected with the virus (MT4 Ninf), or brought into contact with DMSO (inf DMSO, the solvent of compounds of formula I or II), or with dolutegravir (DTG) at 100 nM, a known inhibitor of the integrase, are conducted in parallel. At time J5 (day five), cells are then collected for cytometry analysis to quantify the production of viral particles and cell survival.
Background: A flow cytometer gives signals particle by particle.

Data set [1] deals with interaction between the HIV-1 integrase (IN) and the catalytic domain of the human mitochondrial lysyl-tRNA synthetase (mLysRS) (Homo sapiens (Human), UniProt P12497+Q15046). The data set can be described thus: HTRF assay of the mLysRS:IN interaction. In kind it is binding, HIV-1 / human. The settings on record: compound from 17 to 666 μM. As for the experimental part: Experiments were performed on the interaction between the HIV-1 integrase (IN) and the catalytic domain of the human mitochondrial lysyl-tRNA synthetase (mLysRS), which constitutes the main contribution to the Gag Pol:mLysRS interaction.
Homogeneous time-resolved fluorescence (HTRF) assays were performed in black, half-area, flat bottom, 96-well microplates (Costar #3694). Human mitochondrial LysRS with a C-terminal HA-tag (mLysRS-HA), diluted in HTRF buffer (10 mM Tris-HCl pH 7.5, 50 mM NaCl, 10 mM 2-mercaptoethanol, BSA at 1 mg/ml) was added (20 μl at a dimer concentration of 3.75 nM) in the wells of microplates placed on ice. Compounds of formula I or II (1 μl of a 10 mM solution in DMSO) were then added to the wells, and mixing was achieved by pipetting up and down 3-times 10 μl. […]
A 10 μl solution of KF prepared in HTRF buffer at a concentration of 250 mM was then added and mixing was achieved by pipetting up and down 3-times 20 μl. After centrifugation at 900 g for 3 min at 4° C., fluorescence of Eu^3+ cryptate and of XL665 was recorded at 620 nm (I620) and 665 nm (I665), respectively, after excitation of Eu^3+ cryptate at 317 nm, in an Infinite M1000 PRO microplate reader (TECAN). Results are expressed as the ratio of I665/I620. The HTRF signal corresponds to the ratio of fluorescence at 665 and 620 nm (I665/I620). […]
Background: Time-resolved FRET reads energy transfer from a long-lived donor to a nearby acceptor.

Data set [2] has as its system HIV-1 gfp+ virus in MT4 cells. In words: Ex-vivo inhibition of HIV-1 replication (multi-cycle, HIV-1 gfp+ in MT4 cells, flow cytometry). Particulars: 10 μM compound, day 5, MT4 cells infected with HIV gfp+. In kind it is cell-based. As to the method:
Ability of compounds of formula I or II to inhibit the HIV-1 replicative cycle ex vivo was conducted by methods commonly used in antiretroviral pharmacology.
MT4 cell line (Charneau et al. J. Virol. 1992, 66:2814) were maintained in RPMI 1640. HEK293T were maintained in Dulbecco's Modified Eagle Medium (DMEM). All media were supplemented with Glutamax and with 10% heat-inactivated fetal calf serum (Hyclone) and 1% penicillin/streptomycin (100 units/mL) (Gibco). All media were purchased from Gibco (Life Technologies Co.). All cell lines used here were incubated at 37° C., under 5% CO2 atmosphere. […]
For HIV-1 gfp+ vectors, viral replication is followed by GFP expression [i.e. the percentage and geometric mean fluorescence intensity (MFI) of GFP^+ cells]. […] Toxicity is also assessed by flow cytometry (side and forward scatter).
At J0 (day zero) MT4 cells was used for infection with HIV gfp+ virus at multiplicity of infection (m.o.i.) reaching 0.1-0.2 (50 ng of p24^gag antigen per 10^6 cells). […] At time J5 (day five), cells are then collected for cytometry analysis to quantify the production of viral particles and cell survival.

Broadly, the IC50 is the midpoint of a concentration-inhibition curve.

Sequence of interaction between the HIV-1 integrase (IN) and the catalytic domain of the human mitochondrial lysyl-tRNA synthetase (mLysRS) (Q15046 whole entry, looked up, other chains not shown, the tested form may be a part): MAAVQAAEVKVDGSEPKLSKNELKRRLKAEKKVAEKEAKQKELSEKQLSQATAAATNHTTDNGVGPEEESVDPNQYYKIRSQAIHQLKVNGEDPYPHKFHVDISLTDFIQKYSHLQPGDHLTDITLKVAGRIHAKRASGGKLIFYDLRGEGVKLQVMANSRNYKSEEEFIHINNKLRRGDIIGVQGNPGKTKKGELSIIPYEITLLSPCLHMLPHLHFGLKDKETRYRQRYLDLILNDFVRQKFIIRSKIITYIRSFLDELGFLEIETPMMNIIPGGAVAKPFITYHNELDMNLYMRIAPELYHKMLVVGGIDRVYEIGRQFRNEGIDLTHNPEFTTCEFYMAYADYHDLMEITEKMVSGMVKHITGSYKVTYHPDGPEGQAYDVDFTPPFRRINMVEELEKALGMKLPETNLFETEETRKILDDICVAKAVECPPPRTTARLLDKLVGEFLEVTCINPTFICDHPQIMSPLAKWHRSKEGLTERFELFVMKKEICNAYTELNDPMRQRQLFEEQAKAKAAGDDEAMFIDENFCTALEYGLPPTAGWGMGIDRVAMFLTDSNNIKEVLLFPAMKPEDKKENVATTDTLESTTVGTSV

For `CCOC(=O)C1=C(C)NC(C)=C(C(=O)OCC)C1c1ccccc1/C=C/C(=O)OC(C)(C)C` [I-a], in the data set with MT4 cells, the cellular toxicity entry was “no cellular toxicity has been observed”.

As to `COCCOC(=O)C1=C(C)NC(C)=C(C(=O)OC/C=C/c2ccccc2)C1c1cccc([N+](=O)[O-])c1` (stereo not drawn) [I-b], in the data set on MT4 cells, the cellular toxicity result was “no cellular toxicity has been observed”.

In the case of `CC1=C(C(=O)OC(C)C)C(c2cccc([N+](=O)[O-])c2)C(C(=O)OC2CN(C(c3ccccc3)c3ccccc3)C2)=C(N)N1` (stereo not drawn) [I-d], in data set [1], the half-maximal inhibitory concentration (IC50) was 400 ± 150 µM.

On to `CN1CCCC(n2nc(Cc3ccc(Cl)cc3)c3ccccc3c2=O)CC1` (stereo not drawn) [II-a], for which the “production of viral particles” value in data set [2] was “greatly reduced”. Besides, in the data set with MT4 cells, the cellular toxicity entry is listed as “no cellular toxicity has been observed”. Moreover, the IC50 in data set [1] worked out at 300 ± 50 µM.
